{"source": "patent US11091419B2", "about": "“Preparation and purification of biphenyldicarboxylic acids” (ExxonMobil Chemical Patents Inc., priority 2017, dated 2021)", "assay": "solubility versus temperature in water (FIG. 2)", "format": "physicochemical", "details": "read from FIG. 2"}
{"smiles": "O=C(O)c1ccc(-c2ccc(C(=O)O)cc2)cc1", "note": "[4,4′-BPDA, 4,4′-biphenyldicarboxylic acid]", "values": [{"measurement": "water solubility (BPDA loading in the aqueous phase)", "setting": "320° C.", "result": "ca. 10 wt %"}, {"measurement": "water solubility (BPDA loading in the aqueous phase)", "setting": "340° C.", "result": "ca. 20 wt %"}]}
